This is an account of results in patent US20210386761A1, “COMPOSITION FOR PREVENTING OR TREATING INFLAMMATORY BOWEL DISEASE, CONTAINING, AS ACTIVE INGREDIENT, TAURODEOXYCHOLIC ACID OR PHARMACEUTICALLY ACCEPTABLE SALT THEREOF” (SHAPERON INC., priority 2019, published 2021).

In one assay the test system is IL-6. Nature of the assay: Pro-inflammatory cytokine ELISA of colon tissue, IL-6. The settings on record: for IL-6 in the colon tissue: Day 7. The format is in vivo, mouse. The method, then: (§1) In order to evaluate the clinical symptoms-improving efficacy in comparison with those by clinical prescription drugs, inflammatory bowel disease was induced by 7-day or repeated administration of 3% or 2.5% DSS solution, and tofacitinib 10 mg/kg, 5-ASA 100 mg/kg or 200 mg/kg, prednisolone 1 mg/kg, and TDCA 2.5 mg/kg were administered one time a day from the start date of DSS administration. From the start date of DSS administration, TDCA 2.5 mg/kg was administered one time a day (QD), two times a day (BID), and three times a day (TID).
A colon was obtained from a mouse which had been subjected to an experiment by the same method as that described in <Example 2>, the peripheral colon was cut into 2 cm in length and the weight was recorded. Next, the colon was chopped into 1 mm pieces and frozen on ice, treated with 500 μl of cold DPBS containing protease inhibitor (Roche, 11836170001, Basel, Switzerland), and homogenized for 10 to 20 seconds using an electric homogenizer (IKA T10 Basic, Wilmington, SE, USA). The homogenate was centrifuged at 4° C. for 10 minutes at 12,000×g to obtain a supernatant. ELISA analysis was performed using the obtained supernatant, IL-6 DuoSet ELISA kit (R & D systems, USA), IL-1β DuoSet ELISA kit (R & D systems, USA), and TNF-α DuoSet ELISA kit (R & D systems, USA) according to the manufacturer's procedure to confirm the production of pro-inflammatory cytokines.
(§2) Specifically, female C57BL/6 mice were fed with a 2% DSS solution together with drinking water for 7 days from Day 0 of the experiment by the same method as that described in <Example 1>, DPBS or 5 mg/kg TDCA was administered to the mice by oral gavage one time a day for 6 days from Day 1 of the experiment, and the body weight and DAI were measured daily. As a control, mice freely fed with drinking water were used. Next, the mice were sacrificed on Day 7 of the experiment by the same method as that described in <Example 3>, and inflammatory cell and proinflammatory cytokine analysis was performed.
as §2, with “oral gavage from Day” for “oral gavage one time a day for 6 days from Day”, “1 of DSS administration or 2 days before DSS administration, and the” for “1 of the experiment, and the”, “3>, and the inflammatory cell” for “3>, and inflammatory cell”

The subject of assay [1] is inflammatory bowel disease induced by 3% DSS administration for 7 days. Put plainly: 3% DSS 7-day inflammatory bowel disease model, comparison with clinical prescription drugs. It is filed as in vivo, mouse. Particulars: 3% DSS 7 days. The protocol: as §1
The disease activity indexes (DAI) including body weight, body weight loss, stool consistency, and bloody stool were measured daily. DAI was scored according to the following [Table 1].
After the experiment was completed, the mice were euthanized with CO2 and the bowels were excised. Next, the bowels were put in cold 1×DPBS and the remaining mesenteric adipose tissue was isolated. At this time, the colon length was measured. Next, the tail end of the colon was opened and wound up with scissors to obtain colon tissue. The obtained colon tissue was fixed in 10% neutral buffered formalin (Sigma-Aldrich, HT501128-4L, St. Louis, Mo., USA) at room temperature for 48 hours and then treated in a tissue processor (Excelsior ES, Thermo scientific, Waltham, Mass., USA) for 12 hours. The processed tissue was sectioned and paraffinized using a microtome (Microm, HM 340E, Thermo Scientific, Waltham, Mass., USA) and an embedding system (HistoStar, Thermo Scientific, Waltham, Mass., USA). Next, the processed tissue was stained with hematoxylin and eosin, and visualized under an optical microscope (Motic, BA310, Redding, Calif., USA) to confirm the histopathological state, and the histopathological state was scored to histological score according to the criteria in the following [Table 2].

Assay [2] concerns inflammasome activity of bone marrow-derived macrophages. Nature of the assay: Inhibition of IL-1β secretion of bone marrow-derived macrophages (LPS then ATP or BzATP). The format is cell-based. The settings on record: Mus musculus, Macrophage, LPS 10 ng/ml 3 h, TDCA 1 h, ATP 0.5 mM or BzATP 0.3 mM 1 h, FIGS. 10A and 10B. The protocol: Bone marrow was collected from a DPBS-administered mouse which had been subjected to an experiment by the same method as that described in <Example 2>, induced to differentiate into macrophages, then pretreated with LPS (10 ng/ml) for 3 hours so as to be 4×10^4 cells in a 96-well plate, treated with TDCA at various concentrations for 1 hour, then treated with ATP (0.5 mM) or BzATP (0.3 mM) for an additional 1 hour, and cultured, and the amount of IL-1β in the cell culture was measured and analyzed using an ELISA kit (R & D systems, USA) according to the manufacturer's procedure.

In general, IC50 refers to the point on the concentration scale where inhibition reaches its midpoint. Higher therefore signals lower potency. For `C[C@H](CCC(=O)NCCS(=O)(=O)O)[C@H]1CC[C@H]2[C@@H]3CC[C@@H]4C[C@H](O)CC[C@]4(C)[C@H]3C[C@H](O)[C@]12C` [TDCA, sodium taurodeoxycholic acid], the “IL-6 in the colon tissue” value is reported as “decreased” with IL-6 (2% DSS 7 days, 5 mg/kg TDCA oral gavage, FIG. 3B); “decreased” with IL-6 (DSS+TDCA group: 5 mg/kg TDCA from Day 1 of DSS, FIG. 7B); “decreased” in the assay on IL-6 (DSS+preTDCA group: 5 mg/kg TDCA from 2 days before DSS, FIG. 7B). Moreover, in the assay on IL-6 (3% DSS 7 days, TDCA 2.5 mg/kg vs tofacitinib 10 mg/kg and 5-ASA 100 mg/kg), the “concentration of IL-6 in the colon tissue, compared with clinical prescription drugs” value is “equivalent to those by tofacitinib 10 mg/kg and 5-ASA 100 mg/kg”. Moreover, in assay [1] (TDCA 2.5 mg/kg one time a day vs tofacitinib 10 mg/kg and 5-ASA 100 mg/kg, FIG. 9A), the “body weight change, compared with clinical prescription drugs” value is “effect equivalent to those by tofacitinib 10 mg/kg and 5-ASA 100 mg/kg”. Also, in assay [1] (TDCA 2.5 mg/kg one time a day vs tofacitinib 10 mg/kg and 5-ASA 100 mg/kg, FIG. 9B), the “DAI change, compared with clinical prescription drugs” value is “effect equivalent to those by tofacitinib 10 mg/kg and 5-ASA 100 mg/kg”. Also, the “colon length, compared with clinical prescription drugs” value in assay [1] (TDCA 2.5 mg/kg vs tofacitinib 10 mg/kg and 5-ASA 100 mg/kg, FIG. 9C) is “effect equivalent to those by tofacitinib 10 mg/kg and 5-ASA 100 mg/kg”. Besides, the “histological lesion index, compared with clinical prescription drugs” value in assay [1] (TDCA 2.5 mg/kg vs tofacitinib 10 mg/kg and 5-ASA 100 mg/kg, FIG. 9D) is “effect equivalent to those by tofacitinib 10 mg/kg and 5-ASA 100 mg/kg”. For the same compound, in assay [2], the IC50 was 60 to 90 nM.
